From patent US11491129B2, “Oral formulations of bipolar trans carotenoids” (priority 2010, dated 2022)

Legend:
neurons [1] = assay: Rat model of hemorrhagic stroke (collagenase), neuronal death; type: in vivo; conditions: TSC injected starting 3 hours after collagenase, sacrifice at 48 hours
Method: The first study in which this was done was one conducted using a rat model of hemorrhagic stroke. […] TSC was then injected starting 3 hours after the collagenase was administered, and the animals were sacrificed 48 hours after the administration of the collagenase.
When there is a hemorrhage in the brain, the blood pools and forms a hematoma. Around the periphery of this hematoma, there is a death of neuronal cells. […] Use of the stain, fluorojade, allows one to count the numbers of “dead” neurons in a given brain section of the brain. This was done in the area around the hematomas formed in the hemorrhagic stroke rat model.

[2] = Behaviour of TSC under acidic conditions (stomach); type: physicochemical
From the text: TSC is precipitated under acidic conditions, such as those which exist in the stomach. […] TSC is not stable in acidic conditions and will be converted to the cis isomer which can precipitate. A system has been devised that will protect TSC in the harsh, acidic environment of the stomach and release TSC in a more favorable pH region. A more favorable pH does exist in the small intestines. […] See Examples below. TSC's effectiveness is believed to be dependant on the TSC concentrations levels found in the body. The effectiveness of TSC can be prolonged by administering TSC orally. […] TSC must be protected from the harsh environment of the stomach and be release in a more favorable, higher pH region of the small intestine. For this study, tablets of TSC were made (Table 1) and were enterically coated with either Eudragit L100 or cellulose acetate phthalate (CAP). The integrity of both types of protective coatings were confirmed in a USP dissolution study in which enterically coated tablets were first place in a dissolution cell containing simulated gastric fluid (SGF), then transferred to another cell containing simulated intestinal fluid (SIF). […] This study was performed according to USP protocols.

[3] = test system: B16 (mouse melanoma) cells; assay: Pulmonary metastasis mouse model, B16 tumor counts in lungs; type: in vivo
From the text: The pulmonary metastasis mouse model is a widely used model for the evaluation of tumor therapy. With B16 (mouse melanoma) cells, essentially all cells “take” upon intravenous cell injection in the tail vein, and the tumors are preferentially formed in the lungs. Thus, the term pulmonary metastasis is widely used even though every resulting pulmonary nodule is technically an independent “primary” tumor rather than a true metastasis.
There is always a fraction of nodules that is amelanotic (“white”) though, and this requires careful counting in order not to underestimate the tumor burden.
For the subject studies, eight-week-old female C57BL/6 mice were obtained from Charles River Laboratories. The mice were housed in groups of 5 or fewer, and received food and water ab libitum.
B16 cells were cultured by the Center for Cell Signaling of the University of Virginia using a standard protocol. The cells were received while they were in an exponential growth phase. The cells were supplied at a concentration of 5×10^5 cells/mL in Hank's buffered salt solution (HBSS).
The cells were injected immediately upon receipt, and this day was designated as Day 0. On Day 0, all of the mice were injected intravenously in the tail vein with 0.1 mL of the cell suspension, meaning that each mouse received 0.5×10^5 cells. The mice were then left alone until Day 4.
On Day 4, the mice were divided into two groups: Group A, consisting of 5 mice, received an intravenous injection of 0.05 mL of saline in the tail vein. Group B, composed of 7 mice, received an intravenous injection of 0.05 mL of a TSC solution in the tail vein, for a TSC dosage of 0.142 mg/kg/day. The same injections were repeated on Days 5-8 and on Days 11-15. On Day 18, the mice were sacrificed using carbon dioxide. The lungs were excised, rinsed and placed in Fekete's Solution and stored at room temperature.
Later, the lungs were assessed visually, in random, blinded order, to obtain a visual count of the numbers of tumors. […] Thus, the tumors were counted visually in two separate groups: small tumors and medium/large tumors. Although the majority of the tumors were black, there were also some white tumors.

[4] = Scalability for Cmax: TSC with gamma cyclodextrin 1:1 in jejunum; type: in vivo; conditions: rat jejunum; 2.5, 5, 10 and 60 mg/kg TSC; TSC:gamma cyclodextrin 1:1; FIG. 4
Method: The dosage of TSC used in the above study is large, therefore, additional doses of TSC were administered with gamma cyclodextrin at a ratio of 1:1 (wt. TSC:wt. gamma cyclodextrin) in order to determine the scalability of systemic absorption (in terms of Cmax) with respect to TSC dosing amount. For the following study, TSC was administered to the jejunum intestinal segment at the following dosages: 2.5, 5, 10, and 60 mg/kg.
(§1) For this study, male Sprague-Dawley (SD) and Wistar rats weighing approximately 300-400 g each were fasted for 24 hours prior to each experiment. Water was given ad libitum and coprophagy was prevented by using cages with wire-mesh floors. Anesthesia was induced and maintained with isoflurane. The carotid artery was exposed and cannulated with PE-50 tubing. The cannula was secured using silk sutures and 2% lidocaine was applied to the wound.
Following cannulation, a front midline […] was made, exposing the abdomen and intestinal segments. In this study, the jejunum was isolated and the TSC formulation was administered in the proximal jejunum. Movement of TSC within the intestinal segments was not restricted distal to the site of administration. The intestine was replaced and the abdomen closed with sutures. […] The plasma mixture was then centrifuged and the supernatant was analyzed by HPLC to determine TSC levels.

neurons [5] = assay: Rat model of Parkinson's disease (6-OHDA), post-treatment, live neuron counts; type: in vivo
Method: It is of much more interest to know the effect of post-treatment on neuronal death following the injection of 6-OHDA. To investigate that, 5 μg of 6-OHDA were again injected into the substantia nigra as before, but the treatment began following that injection. The animals were then given daily injections of TSC (0.25 mg/kg) for 4 weeks before sacrifice. The brains were removed and sent to Charles River Laboratories for neuronal counts.

[6] = Intestinal (jejunum) absorption of TSC and effect of gamma cyclodextrin; type: in vivo; conditions: rat jejunum; approx. 60 mg/kg TSC; TSC:gamma cyclodextrin 0.5:1 up to 4:1 (wt:wt); FIG. 2
Method: as §1, with “Male” for “For this study, male”
Following cannulation, a front midline […] was made, exposing the abdomen and intestinal segments. In this study, the jejunum was isolated and the TSC formulation was administered in the proximal jejunum. Approximately 60 mg/kg TSC was administered at various gamma cyclodextrin ratios of 0.5:1 up to 4:1 (wt. TSC:wt. gamma cyclodextrin). Movement of TSC within the intestinal segments was not restricted distal to the site of administration. The intestine was replaced and the abdomen closed with sutures. Approximately 0.3 mL blood samples were taken for the carotid artery at discrete time intervals following TSC administration. A small amount of sodium heparin was used as an anticoagulant. The blood samples were centrifuged and the resulting plasma volume mixed with 3 volumes of methanol and vortexed. The plasma mixture was then centrifuged and the supernatant was analyzed by HPLC to determine TSC levels.

neurons [7] = assay: Rat model of Parkinson's disease (6-OHDA), pretreatment, live neuron counts; type: in vivo; conditions: TSC 0.1 mg/kg for 7 days preceding 10 μg 6-OHDA; sacrifice 4 weeks later; FIG. 8
Method: Another model that was used examined the effect of TSC on neuronal viability is a rat model of Parkinson's disease. In this model, a burr hole is drilled through the skull and into the region of the substantia nigra. The Parkinson's-like condition is induced by injecting 6-hydroxydopamine (6-OHDA) into the brain. An amount of 10 μg of 6-OHDA is frequently injected in this model, and was used in the first study.
In the study, TSC was injected at a dosage of 0.1 mg/kg for 7 days preceding the injection of the 6-OHDA (the same dosing regimen as had been done in the crocetin study). Following the injection of the 6-OHDA, no further treatments were given over the next 4 weeks.
At that time the rats were sacrificed and the brains removed and sent to Charles River Laboratories for counts of live neurons. […] This allowed the comparison of cell death (treated side count/untreated side count) of the controls, which had been pretreated with saline, to the animals pretreated with TSC.

neurons [8] = conditions: study found in the literature; crocetin pretreatment; cited from earlier work
[9] = C57BL/6 mice lungs Day 18, TSC 0.142 mg/kg/day iv, N 7
[10] = mean±standard deviation, C57BL/6 mice lungs Day 18, TSC 0.142 mg/kg/day iv, N 7

| SMILES | less death of the neurons around the periphery of the hematoma (neurons [1]) | less neuronal death, fluorojade count of dead neurons around the hematomas (neurons [1]; FIG. 7) | solubility in the acidic environment of the stomach ([2]; TSC is precipitated) | stability in acidic conditions ([2]; converted to the cis isomer) | Small tumors med. ([3]; C57BL/6 mice lungs Day 18, TSC 0.142 mg/kg/day iv Days 4-8 and 11-15, N 7) | Medium/Large tumors med. [3, 9] | Total tumors med. [3, 9] | statistical difference of tumor counts, TSC group vs saline group ([3]; Day 18, large standard deviations) | Medium/Large tumors mean [3, 10] | Small tumors mean [3, 10] | Total tumors mean [3, 10] | linear regression of Cmax versus TSC dosage [4] | more live neurons vs saline (neurons [5]; 5 μg 6-OHDA, daily TSC 0.25 mg/kg for 4 weeks after injection, p<0.05, FIG. 9) | effect on viability of live neurons, non-6-OHDA side of the brain (neurons [5]; daily TSC 0.25 mg/kg for 4 weeks vs saline, FIG. 10) | effect of γ-cyclodextrin on absorption of TSC [6] | percentage of live neurons (treated side count/untreated side count) vs saline controls (neurons [7]) | effect of pretreatment on neuronal death following 10 μg 6-OHDA (neurons [8]) |
| --- | --- | --- | --- | --- | --- | --- | --- | --- | --- | --- | --- | --- | --- | --- | --- | --- | --- |
| CC(/C=C/C=C(\C)C(=O)[O-])=C\C=C\C=C(C)\C=C\C=C(/C)C(=O)[O-].[Na+].[Na+] [TSC, trans sodium crocetinate] | about 20% | approximately 30% | practically insoluble | not stable | 18 | 19 | 34 | not statistically different | 30 ± 24 | 32 ± 29 | 62 ± 53 | excellent fit | about 20% | no effect | greatly enhances | approximately doubled | – |
| CC(/C=C/C=C(\C)C(=O)O)=C\C=C\C=C(C)\C=C\C=C(/C)C(=O)O [crocetin] | – | – | – | – | – | – | – | – | – | – | – | – | – | – | – | – | beneficial effect |
